From a melting point compilation (Tetko et al.; mined from patent text by program, amines drawn as free bases though some values may be those of a salt)

First: CC1(C)CCC(C)(C)c2cc(NC(=O)c3ccc(C=O)cc3)ccc21
Second: COc1ccc(C(=O)C2Cc3ccc(O)c(O)c3C2=O)cc1 (stereo unspecified)
The melting point of the first is lower: 186 °C for the first, 191 to 193 °C for the second.

First: Cn1c(=O)oc2cc(CCN3CCN(c4ccc(F)cc4)CC3)ccc21
Second: CC(C)NS(=O)(=O)c1ccc(N2CCC(=O)CC2)cc1
The melting point of the first is higher: 161 to 164 °C for the first, 103 to 105 °C for the second.

First: CCSC(=O)c1c(C(F)(F)F)nc(C(F)F)c(C(=O)OC)c1NC(C)C
Second: COCC#Cc1cc(C(=O)OC)c(N)cc1C(F)(F)F
The melting point of the first is lower: 56 to 59 °C for the first, 107 to 111 °C for the second.

Compared with `C=CCc1cccc2c(=O)c(C)c(C=Cc3ccccc3)oc12`, `CNc1ccc(Cl)cc1Cc1ccccc1` is lower in melting point: 126 °C for the first, 125 °C for the second.

Compared with `CNC(=O)c1c(O)c(=O)cc(C)n1C`, `CCOC(=O)Cn1c(C)cc2c1CCCC2=O` is lower in melting point: over 250 °C for the first, 101 to 104 °C for the second.

First: CCOC(=O)c1cn(NC)c2cc3c(cc2c1=O)OCO3
Second: CCOC(=O)c1cnoc1-c1ccc(F)c(Cl)c1
The melting point of the first is higher: 211 to 218 °C for the first, 106 to 107 °C for the second.

Compared with `CCC1c2nc[nH]c2CCN1C(=O)NC(C)C` (stereo unspecified), `CCOC(=O)C(C#N)=CNc1nccc2c1CCCC2` is lower in melting point: 170 °C for the first, 116 to 120 °C for the second.

Compared with `Fc1ccc2nc(Cl)c(Cl)nc2c1`, `Cc1nc2ccccc2c(NCCO)c1Br` is higher in melting point: 148 to 152 °C for the first, 154 to 155 °C for the second.

Compared with `CCn1c(Oc2cccc(NS(C)(=O)=O)c2)nnc1[C@@H](C)NS(=O)(=O)c1ccc(Cl)c(Cl)c1`, `CCCNC(=O)c1ccc2c(c1)N(C(C)COS(C)(=O)=O)c1ccccc1S2` (racemic) is higher in melting point: 117 to 118 °C for the first, 138 °C for the second.

First: Nc1cc(C(O)=S)cc(Cc2ccccc2)c1Cc1ccccc1
Second: Nc1cccc(Cn2c(-c3ccc(NC(=O)c4ccccc4)cc3)ccc2-c2ccccc2Cl)n1
The melting point of the first is higher: 256 to 257 °C for the first, 196 to 198 °C for the second.

First: CNc1ccc(Cl)cc1
Second: CC(C)n1cc(C(=O)NCc2ccc(Cl)cc2)c(=O)c2cc(C#CCO)sc21
The melting point of the first is lower: 72 to 74 °C for the first, 190 to 196 °C for the second.

Compared with `O=c1[nH]c2cccnc2n1-c1ccccc1F`, `Cc1cc(Nc2ccc(C(F)(F)F)cc2C(=O)O)n(-c2ccccn2)n1` is higher in melting point: 195 °C for the first, 228 to 229 °C for the second.

First: CC(C)(C(CC(=O)c1ccccc1)c1cccnc1)[N+](=O)[O-] (stereo unspecified)
Second: CCCCOc1ccc(CNC(=O)c2ccccc2[N+](=O)[O-])cc1
The melting point of the first is higher: 134 to 135 °C for the first, 101 to 102 °C for the second.

First: COC(=O)c1ccc2c(=O)n(CC(C)C)c(CNC(=O)OC(C)(C)C)c(-c3ccc(Cl)cc3)c2c1
Second: Cc1ccc(-c2c(C(=O)NCc3cc(C(F)(F)F)cc(C(F)(F)F)c3)oc(=O)c3cnccc23)cc1
The melting point of the first is higher: 205 to 207 °C for the first, 188 to 189 °C for the second.

First: COc1cc(N)c(Cl)cc1C(=O)NC1CCN(CC2CCN(C(N)=O)CC2)CC1
Second: CNC(=S)N1CCSC1c1ccccc1OCCN1CCC(c2ccccc2)CC1 (stereo unspecified)
The melting point of the first is higher: 222 to 224 °C for the first, 141 to 142 °C for the second.

First: COC(=O)NN[C@@H]1c2cc(C#N)ccc2OC(C)(C)[C@H]1O (relative stereo)
Second: COC(=O)C1CSC(c2ccc(Oc3ccc(C)cc3O)cc2)N1 (stereo unspecified)
The melting point of the first is higher: 174 to 175 °C for the first, 134 to 135 °C for the second.

`NS(=O)(=O)c1ccc(-c2cnn(-c3ccc(F)c(F)c3)c(=O)c2Oc2ccc(F)cc2)cc1` and `Cn1cc(C2=C(c3cn(C)c4cc(CC#N)ccc34)C(=O)NC2=O)c2ccccc21` cannot be ordered by melting point: 224 to 226 °C for the first, 225 to 226 °C for the second.

`O=C1CCC(c2ccc(C3=NNC(=O)CC3)cc2)=NN1` and `CC1SC(=O)NN=C1c1ccc2c(c1)C(=Nc1ccc(N(C)C)cc1)C(=O)N2` (stereo unspecified) cannot be ordered by melting point: over 250 °C for the first, 261 °C for the second.

First: Nc1c(Cl)cc2c3c(cccc13)C(=O)N(O)C2=O
Second: CC(=O)OCCC(C(N)=O)C1(C)OCCc2c1[nH]c1ccccc21 (stereo unspecified)
The melting point of the first is higher: 354 to 359 °C for the first, 141 to 143 °C for the second.

Compared with `O=c1n(-c2cc(OCCCl)c(Cl)cc2Cl)nc2n1CCCC2`, `CC(C)Oc1ccc(CCCOc2cc(CCC(=O)O)n(C3CCCCC3)n2)c(Oc2ncc(C(F)(F)F)cc2Cl)c1` is lower in melting point: 148 to 150 °C for the first, 114 to 115 °C for the second.

First: CCCCCCCCNC(=O)Cc1c(C)cc(C(C)(C)C)c(O)c1C
Second: CC(=O)c1ccc(CCCCCCOc2ccc(C(=O)c3cccc(C(=O)O)c3)cc2CCC(=O)O)cc1
The melting point of the first is lower: 101 to 104 °C for the first, 139 to 141 °C for the second.

First: COc1ccc(N2CCOCC2)c2sc(-c3nc4ccccc4[nH]3)nc12
Second: CCc1nc2c(cnn2CC)c(NC2CCOCC2)c1CNC(=O)c1cccc(C(=O)NCc2ccc(C)c(-c3cccc(CN4CC5CC4CN5)c3)c2)c1 (stereo unspecified)
The melting point of the first is higher: 284 to 286 °C for the first, 138 to 140 °C for the second.

First: CC(=O)c1cnc(C(=O)C(C)(C)C)cn1
Second: CCOC(=O)CN1CC(OC)=CC1=O
The melting point of the first is lower: 41 to 42.5 °C for the first, 54 to 56 °C for the second.

Compared with `Nc1sc2c(c1C(=O)c1ccc(Br)s1)CCCC2`, `O=C(CC1CCCCC1)Nc1ccccc1` is lower in melting point: 160 to 163 °C for the first, 126 to 128 °C for the second.

First: O=Cc1[nH]ccc1-c1ccc(I)cc1
Second: Cc1cc(OC(F)F)nc(NC(=O)NS(=O)(=O)c2ccccn2)n1
The melting point of the first is higher: 153 to 154 °C for the first, 150 to 151 °C for the second.

In the case of `Cc1cccc(C)c1N1CN(C)CN(C)C1=S`, the melting point is reported as 121 to 123 °C.
